Where two headings read alike, the source gives them in different places.

What is called IC50 is the point on the concentration scale where inhibition reaches its midpoint.

In one series the test system is CAFs. The series can be described thus: 2D cell viability in CAFs. Format: cell-based, murine. Particulars: Mus musculus, 24 h, read-out: Reduction of Cell Viability 24 h IC50 in CAFs. As for the experimental part: Table S1 IC50-values for reduction of cell viability determined in CAFs.
Compound Cell Viability 1
1 Cell viability of CAFs was determined 24 h post-treatment with the 2D cell viability assay. CAFs were seeded at a cell density of 2.5 × 10^3 cells per well. Compound concentration was applied in triplicates in a four-fold serial dilution starting at 1000 nM. 2 Duration of treatment. 3 Mean ± SD […]
50 µM. 4 Mean ± SD (n = 3). 5 Mean ± SD (n = 2).

The next series deals with MDA-MB-468-UnaG. Put plainly: 2D cell viability in MDA-MB-468-UnaG under normoxia or CoCl2-simulated hypoxia.
The test system of another series is IκBα. Put plainly: Western blot of IκBα after TNFα stimulation. Format: cell-based. The note with it: MDA-MB-468-UnaG. As for the experimental part: We investigated NFκB-blocking by determining the protein expression of its cytoplasmic inhibitor IκBα in MDA-MB-468-UnaG cells. On day 1, the cells were seeded into a 6 well plate (Greiner; #657160). On day 2, the cells were either left untreated (normoxia) or exposed to 100 µM CoCl2 (hypoxia) (Sigma-Aldrich; #C8661). On day 3, the medium was replaced, and cells were either exposed to DMSO (Roth; #A994.1) alone at maximal 0.1% or to compound (1s) at the concentrations 2 nM, 5 nM, 10 nM, 20 nM, or 50 nM for 1 h. An amount of 10 ng/mL TNFα was applied as a positive control. […] An amount of 20 µg of the total protein was separated on a ready-to-use 12% SDS-gel (Bio-Rad, Düsseldorf, Germany; #456-1044). […] For protein detection via chemiluminescence, the membrane was incubated in HRP-substrate (Thermo Fisher Scientific; #34577) for 5 min and the signal was recorded using the Fusion Pulse TS microscope (VILBER, Eberhardzell; Germany). Signal quantification was performed using the software EvolutionCapt (VILBER). […]
Figure 8 Compound (1s) stabilizes IκBα under normoxic and under hypoxic conditions. […] Statistical difference vs. TNFα was calculated with two-way ANOVA (* p < 0.05, ** p < 0.01, *** p < 0.001). […]
Background: A western blot detects proteins with antibodies after separation by electrophoresis.

As to `COc1ccc2c3c(c4cc(OC)c(OC)cc4c2c1)CN1CCCC1C3O` (stereo not drawn) [Compound (1), O-methyltylophorinidine], in the series on CAFs, the IC50 was 2.7 ± 0.9 nM.
Take `COc1ccc2c3c(c4cc(OC)c(OC)cc4c2c1)CN1CCCC1C3O` (stereo not drawn) [Compound (1s), O-methyltylophorinidine]: the IC50 with MDA-MB-468-UnaG (24 h, read-out: cell viability IC50, hypoxia) was 6.5 nM; with MDA-MB-468-UnaG (read-out: cell viability IC50, normoxia), 6.7 nM. Further, in the series with MDA-MB-468-UnaG (hypoxia vs normoxia, MDA-MB-468-UnaG), the “decrease of cytotoxic effects by hypoxia (factor)” value was “barely affected”. Moreover, the “TNFα-mediated IκBα degradation” value with IκBα (CoCl2-simulated hypoxia, 20 nM) was “suppressed”. In the series on IκBα (normoxia, 20 nM pre-incubation 1 h, TNFα 10 ng/mL 30 min), the “IκBα protein level after TNFα” value is “stabilized IκBα”.

The record behind these values is PMC9499467, “Phenanthroindolizidine Alkaloids Isolated from Tylophora ovata as Potent Inhibitors of Inflammation, Spheroid Growth, and Invasion of Triple-Negative Breast Cancer” (International Journal of Molecular Sciences, 2022).
